How the values were obtained:
M. Luteus ATCC 10240 = assay: Agar diffusion assay (modified Kirby-Bauer); type: cell-based; conditions: M. Luteus ATCC 10240, 2 mM solution, 50 μL in 9.0 mm well, P unclear, V very unclear zone, * slightly misshapen zone
Description: (§1) Antibacterial activity of the compounds was determined by a modified Kirby-Bauer^27-28 agar-diffusion assay. Overnight cultures of test organisms were grown in LB broth for 18-24h and standard suspensions of […] were prepared in saline solution (0.9% NaCl) according to a 0.5 BaSO4 McFarland Standard. This standardized suspension (0.1 mL) was added to 34 mL of sterile, Mueller Hinton No. 2 agar tempered to 47-50° C. After gentle mixing, the inoculated agar media was poured into a sterile plastic petri dish (145 mm×20 mm) and allowed to solidify near a flame with the lid cracked for 30 min. Wells of 9.0 mm diameter were cut from the petri dish agar and filled with exactly 50 μL of the test sample solution. For studies using mixtures of compounds, both test compounds were diluted to equal concentrations and 50 μL of the mixed compound solution was added to the cut well. The petri dish was incubated at 37° C. for 18-24 h and the inhibition zone diameters were measured (mm) with an electronic caliper after 24-48 h.
(§2) All compound-containing solutions were prepared by first making a 20 mM solution of the compound in DMSO and then diluting that solution 10-fold with MeOH to give the final 2 mM solution used in the assay.
(§3) Plates were incubated after inoculation at 37° C. for 20 hours. Plates were photographed after 1 day. M. vaccae required a longer incubation time, 48 hours, and was photographed after 3 days.

B. Subtilis ATCC 6633 = assay: Agar diffusion assay (modified Kirby-Bauer); type: cell-based; conditions: 50 μL in 9.0 mm well, P unclear, V very unclear zone, * slightly misshapen zone
Description: as §1, §2, §3

P. Aeruginosa K799/wt = assay: Agar diffusion assay (modified Kirby-Bauer); type: cell-based; conditions: P. Aeruginosa K799/wt (wild type); 2 mM solution, 50 μL in 9.0 mm well; P unclear, V very unclear zone, * slightly misshapen zone
Description: as §1, §2, §3

E. Coli DC0 = assay: Agar diffusion assay (modified Kirby-Bauer); type: cell-based; conditions: 2 mM solution, 50 μL in 9.0 mm well, P unclear, V very unclear zone, * slightly misshapen zone
Description: as §1, §2, §3

P. Aeruginosa K799/61 = assay: Agar diffusion assay (modified Kirby-Bauer); type: cell-based; conditions: P. Aeruginosa K799/61 (permeability mutant); 2 mM solution, 50 μL in 9.0 mm well; P unclear, V very unclear zone, * slightly misshapen zone
Description: as §1, §2, §3

B. Dolosa AU 0018 = assay: Agar diffusion assay (modified Kirby-Bauer); type: cell-based; conditions: 2 mM solution, 50 μL in 9.0 mm well, P unclear, V very unclear zone, * slightly misshapen zone
Description: as §1, §2, §3

M. Vaccae IMET 10670 = assay: Agar diffusion assay (modified Kirby-Bauer); type: cell-based; conditions: 2 mM solution, 50 μL in 9.0 mm well, 48 hours incubation, P unclear, V very unclear zone, * slightly misshapen zone
Description: as §1, §2, §3

S. Aureus SG511 = assay: Agar diffusion assay (modified Kirby-Bauer); type: cell-based; conditions: 2 mM solution, 50 μL in 9.0 mm well, P unclear, V very unclear zone, * slightly misshapen zone
Description: as §1, §2, §3

A. Baumannii ATCC 17961 = assay: Agar diffusion assay (modified Kirby-Bauer); type: cell-based; conditions: 50 μL in 9.0 mm well, P unclear, V very unclear zone, * slightly misshapen zone; for Zone of Growth Inhibition: 2 mM solution
Description: as §1, §2, §3

E. Coli DC2 = assay: Agar diffusion assay (modified Kirby-Bauer); type: cell-based; conditions: E. Coli DC2, 2 mM solution, 50 μL in 9.0 mm well, P unclear, V very unclear zone, * slightly misshapen zone
Description: as §1, §2, §3

PAM 2035 = assay: β-lactamase inhibition, Ki by enzyme kinetics; type: biochemical; conditions: PAM 2035, class C
SHV-12 = target: T1, SHV-12 (Klebsiella pneumoniae, UniProt P0AD64, E235K/G234S/L31Q); assay: β-lactamase inhibition, Ki by enzyme kinetics (nitrocefin); type: biochemical; conditions: SHV-12, class A
T1 construct: host or cells: E. coli
T1 sequence (P0AD64 22-286 L31Q/G234S/E235K): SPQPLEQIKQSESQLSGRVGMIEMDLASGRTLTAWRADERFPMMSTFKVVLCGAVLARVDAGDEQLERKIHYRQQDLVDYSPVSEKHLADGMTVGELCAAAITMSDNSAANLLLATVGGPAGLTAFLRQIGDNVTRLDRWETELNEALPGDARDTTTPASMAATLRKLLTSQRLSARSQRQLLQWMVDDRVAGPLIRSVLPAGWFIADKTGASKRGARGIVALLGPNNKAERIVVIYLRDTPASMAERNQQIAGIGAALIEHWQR
Description: (§4) The enzymes KPC-2, Oxa-48, AmpC and NDM-1 were purchased from Emerald Bioscience and the enzymes CTX-14 and SHV-12 were expressed and purified from E. coli at Rempex pharmaceutical (San Diego, Calif.).
(§5) To the first row of a 2-mL deep 96-well block was added 1 mL of 50 mM sodium phosphate buffer at pH 7 with 0.1 mg/mL BSA (bovine serum albumin). To the first row was added an appropriate amount of a 10 mg/mL solution of the compound to be tested to make a 640 μM (4×) solution. Each of the other wells in the 96-well block were charged with 750 μL of the aforementioned buffer. The rows were then repeatedly diluted 1:3 so that the final concentrations of the individual 96-well plates would range in concentrations from 160 μM to 3 nM (8 dilutions). The master block was then used to add 50 pt to each corresponding well in the 96-well flat-bottom plate. An additional 50 of buffer was added to each well. Once the plates were prepared, 50 μL of the enzyme to be tested against were added in buffer to each well [KPC-2 (0.147 mg/mL), CTX-M-14 (0.102 mg/mL), […] (0.331 mg/mL), AmpC (0.699 mg/mL), SHV-12 (0.111 mg/mL), NDM-1 (0.110 mg/mL)]. The plates were incubated at rt for 10 min before 50 μL. of an appropriate indicator were added to each well and the optical density at 495 nm was measured over time. For each enzyme, other than NDM-1, nitrocefin was used. Nitrocefin (10 μM for SHV-12, 50 μM for the other enzymes), was appropriate because when cleaved by a β-lactamase, the color changes from yellow to red. For NDM-1, imipenem (10 μM) was the indicator of choice. Rather than observe the growing presence of optical density at 495 nm, as with nitrocefin, the disappearance of imipenem was monitored. The inhibition curves were monitored and used to perform enzyme kinetics according to Waley to determine the Ki (μM) of each compound against the β-lactamases screened.

KPC-2 = target: T2, KPC-2 (Klebsiella pneumoniae, UniProt Q9F663); assay: as above; type: biochemical; conditions: KPC-2, class A
T2 construct: purchased Emerald Bioscience
T2 sequence (Q9F663 25-293 limits assumed): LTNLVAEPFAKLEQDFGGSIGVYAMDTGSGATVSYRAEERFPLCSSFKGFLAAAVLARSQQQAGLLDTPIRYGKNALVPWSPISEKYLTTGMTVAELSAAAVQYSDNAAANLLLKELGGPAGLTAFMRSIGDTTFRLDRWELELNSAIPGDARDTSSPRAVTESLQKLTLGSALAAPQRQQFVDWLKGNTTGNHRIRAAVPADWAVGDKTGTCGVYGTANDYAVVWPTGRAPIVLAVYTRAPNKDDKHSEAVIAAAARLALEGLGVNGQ
Description: as §4, §5

Oxa-48 = target: T3, Oxa-48 (Klebsiella pneumoniae, UniProt Q6XEC0); assay: as above; type: biochemical; conditions: Oxa-48, class D
T3 construct: purchased Emerald Bioscience
T3 sequence (Q6XEC0 23-265 limits assumed): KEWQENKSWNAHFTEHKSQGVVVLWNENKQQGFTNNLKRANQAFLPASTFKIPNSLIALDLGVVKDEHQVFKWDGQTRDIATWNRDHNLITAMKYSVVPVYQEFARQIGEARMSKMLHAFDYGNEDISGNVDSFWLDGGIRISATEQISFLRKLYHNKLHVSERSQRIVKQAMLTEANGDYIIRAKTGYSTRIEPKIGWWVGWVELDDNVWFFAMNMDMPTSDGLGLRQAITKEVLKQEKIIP
Description: as §4, §5

AmpC = assay: as above; type: biochemical; conditions: class C
Description: as §4, §5

CTX-M-14 = target: T4, CTX-M-14 (Escherichia coli, UniProt Q9L5C7); assay: as above; type: biochemical; conditions: CTX-M-14, class A
T4 construct: host or cells: E. coli
T4 sequence (Q9L5C7 entry or part of it): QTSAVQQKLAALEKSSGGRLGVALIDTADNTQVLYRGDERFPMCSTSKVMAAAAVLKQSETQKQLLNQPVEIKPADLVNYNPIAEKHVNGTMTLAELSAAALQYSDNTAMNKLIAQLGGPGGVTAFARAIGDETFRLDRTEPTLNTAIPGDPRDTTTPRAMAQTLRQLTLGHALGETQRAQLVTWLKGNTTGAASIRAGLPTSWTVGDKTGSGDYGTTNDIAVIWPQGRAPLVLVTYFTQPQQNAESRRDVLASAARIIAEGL
Description: as §4, §5

NDM-1 = target: T5, NDM-1 (Klebsiella pneumoniae, UniProt C7C422); assay: β-lactamase inhibition, Ki by enzyme kinetics (imipenem); type: biochemical; conditions: NDM-1, class B
T5 construct: purchased Emerald Bioscience
T5 sequence (C7C422 29-270 limits assumed): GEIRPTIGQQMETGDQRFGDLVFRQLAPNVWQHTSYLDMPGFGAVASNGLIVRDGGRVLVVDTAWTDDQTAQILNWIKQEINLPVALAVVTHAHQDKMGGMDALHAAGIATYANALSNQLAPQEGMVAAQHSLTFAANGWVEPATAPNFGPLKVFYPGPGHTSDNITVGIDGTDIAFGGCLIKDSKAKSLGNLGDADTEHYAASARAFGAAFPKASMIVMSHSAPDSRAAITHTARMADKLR
Description: as §4, §5

[1] = tested on: panel of Gram-positive and Gram-negative bacteria; assay: MIC determination; type: cell-based; conditions: same panel of Gram-positive and Gram-negative bacteria, all values
[2] = tested on: panel of Gram-positive and Gram-negative bacteria; assay: Kirby-Bauer agar diffusion assays, results in words; type: cell-based
Description: as §1, §2, §3

[3] = Escherichia coli, read-out: Zone of Growth Inhibition

With `O=C1CC(CBr)N1OS(=O)(=O)c1ccc([N+](=O)[O-])cc1[N+](=O)[O-]` (stereo not drawn) [Compound 61f] the “Zone of Growth Inhibition” value (M. Luteus ATCC 10240) was 18P, the “Zone of Growth Inhibition” value (B. Subtilis ATCC 6633; 2 mM solution) was 22 mm and the “Zone of Growth Inhibition” value (P. Aeruginosa K799/wt) was 0 mm. For the same compound, the “Zone of Growth Inhibition” value (E. Coli DC0) was 0 mm, the “Zone of Growth Inhibition” value (P. Aeruginosa K799/61) was 0 mm and the “Zone of Growth Inhibition” value (B. Dolosa AU 0018) was 0 mm. For the same compound, the “Zone of Growth Inhibition” value (M. Vaccae IMET 10670) was 28 mm, the “Zone of Growth Inhibition” value (S. Aureus SG511) was 21P and the “Zone of Growth Inhibition” value (A. Baumannii ATCC 17961) was 16V. For the same compound, the “Zone of Growth Inhibition” value (E. Coli DC2) was 16P.
`CC(C)c1cc(C(C)C)c(S(=O)(=O)ON2C(=O)CC2CBr)c(C(C)C)c1` (stereo not drawn) [Compound 61d] was tested, and the Ki (PAM 2035) was > 160 µM, the Ki (SHV-12) was > 160 µM and the Ki (KPC-2) was > 160 µM. For the same compound, the Ki (Oxa-48) was > 160 µM, the Ki (AmpC) was > 160 µM and the Ki (CTX-M-14) was > 160 µM. The Ki (NDM-1) was > 160 µM, the “Zone of Growth Inhibition” value (P. Aeruginosa K799/wt) was 0 mm and the “Zone of Growth Inhibition” value (E. Coli DC0) was 0 mm. The “Zone of Growth Inhibition” value (P. Aeruginosa K799/61) was 0 mm, the “Zone of Growth Inhibition” value (B. Dolosa AU 0018) was 0 mm and the “Zone of Growth Inhibition” value (A. Baumannii ATCC 17961) was 0 mm. The “Zone of Growth Inhibition” value (E. Coli DC2) was 0 mm.
`CO/N=C(\C(=O)N[C@@H]1C(=O)N(S(=O)(=O)[O-])[C@H]1CSCCNC(=O)OC(C)(C)C)c1cnc(N)s1.[K+]` [Compound 43] was tested, and the MIC [1] was > 50 µM, the antibacterial activity ([2]; against B. subtilis and the permeability mutant forms of P. aeruginosa and E. coli) was “moderate activity” and the antibacterial activity ([2]; corresponding wild strains of P. aeruginosa and E. coli) was “inactivity”. The zone of inhibition at 2000 µM (M. Luteus ATCC 10240; Micrococcus luteus, ATCC10240, read-out: Zone of Growth Inhibition) was 0 mm, the zone of inhibition at 2000 µM (B. Subtilis ATCC 6633; Bacillus subtilis, ATCC6633, 2 mM solution, read-out: Zone of Growth Inhibition) was 18 mm and the “Zone of Growth Inhibition” value (P. Aeruginosa K799/wt) was 0ppt. The zone of inhibition at 2000 µM (E. Coli DC0; [3]) was 0 mm, the zone of inhibition at 2000 µM (B. Dolosa AU 0018; Burkholderia dolosa, read-out: Zone of Growth Inhibition) was 0 mm and the zone of inhibition at 2000 µM (M. Vaccae IMET 10670; Mycolicibacterium vaccae, read-out: Zone of Growth Inhibition) was 0 mm. For the same compound, the zone of inhibition at 2000 µM (S. Aureus SG511; Staphylococcus aureus, read-out: Zone of Growth Inhibition) was 0 mm, the zone of inhibition at 2000 µM (A. Baumannii ATCC 17961; Acinetobacter baumannii, ATCC17961, 2 mM solution, read-out: Zone of Growth Inhibition) was 0 mm and the zone of inhibition at 2000 µM (E. Coli DC2; [3]) was 29 mm.
`COC(=O)CSCC1C(NC(=O)Cc2ccccc2)C(=O)N1S(=O)(=O)[O-].[K+]` (racemic) [Compound 29] was tested, and the antibacterial activity ([2]; agar diffusion, overall) was “did not show any activity”.
